# Laboratory results as given in ChEMBL document CHEMBL1201862, “PubChem BioAssay data set” (2004).
#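 Grown in 96-well plates, cells were treated for 48 hours with each compound at five concentrations. Insufficient inhibition: endpoint recorded as highest concentration tested. Here, GI50 denotes the concentration required for 50% inhibition of growth.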 The source made the active and inactive calls. Rule as the data show it: active = GI50 up to about 1.1 µM and inactive = higher.
# Columns and labels:
# Assay in all cases: inhibition of tumour cell growth, NCI panel, 48 h
# NCI-H226 = test system: NCI-H226
# NCI/ADR-RES = test system: NCI/ADR-RES
# M14 = test system: M14
# KM12 = test system: KM12
# SF-539 = test system: SF-539
# TK-10 = test system: TK-10
# DU-145 = test system: DU-145
# UACC-62 = test system: UACC-62
# MDA-MB-435 = test system: MDA-MB-435
# SF-295 = test system: SF-295
# CAKI-1 = test system: CAKI-1
# K562 = test system: K562
# MDA-MB-231 = test system: MDA-MB-231
# NCI-H460 = test system: NCI-H460
# OVCAR-5 = test system: OVCAR-5
# SN12C = test system: SN12C
# Hs-578T = test system: Hs-578T
# HCT-15 = test system: HCT-15
# A498 = test system: A498
# PC-3 = test system: PC-3
Structure (SMILES),GI50 (NCI-H226),GI50 (NCI/ADR-RES),GI50 (M14),GI50 (KM12),GI50 (SF-539),GI50 (TK-10),GI50 (DU-145),GI50 (UACC-62),GI50 (MDA-MB-435),GI50 (SF-295),GI50 (CAKI-1),GI50 (K562),GI50 (MDA-MB-231),GI50 (NCI-H460),GI50 (OVCAR-5),GI50 (SN12C),GI50 (Hs-578T),GI50 (HCT-15) [µM],GI50 (A498),GI50 (PC-3)
COc1ccc(NCc2cnc3nc(N)nc(N)c3c2C)cc1,33.7 µM (inactive),> 100 µM (inactive),1.69 µM (inactive),6.41 µM (inactive),0.7 µM (active),41.4 µM (inactive),0.718 µM (active),0.274 µM (active),0.428 µM (active),0.41 µM (active),6.55 µM (inactive),0.0486 µM (active),0.121 µM (active),0.433 µM (active),3.87 µM (inactive),3.85 µM (inactive),59.8 µM (inactive),0.443,> 100 µM (inactive),–
O=C1NC(=O)/C(=C\c2ccncc2)N1,> 100 µM (inactive),> 100 µM (inactive),> 100 µM (inactive),> 100 µM (inactive),> 100 µM (inactive),> 100 µM (inactive),> 100 µM (inactive),–,> 100 µM (inactive),> 100 µM (inactive),> 100 µM (inactive),–,> 100 µM (inactive),> 100 µM (inactive),> 100 µM (inactive),> 100 µM (inactive),–,> 100,–,> 100 µM (inactive)
O=C(CC(=O)N1N=C(N(c2ccccc2)c2ccccc2)CC1c1ccccc1)Nc1ccccc1 (stereo not given),> 100 µM (inactive),> 100 µM (inactive),> 100 µM (inactive),> 100 µM (inactive),> 100 µM (inactive),> 100 µM (inactive),> 100 µM (inactive),34.4 µM (inactive),> 100 µM (inactive),66.7 µM (inactive),> 100 µM (inactive),> 100 µM (inactive),7.82 µM (inactive),> 100 µM (inactive),> 100 µM (inactive),–,42.5 µM (inactive),> 100,–,> 100 µM (inactive)
Nc1cnc2c(c1)c(=O)nc1n2CCS1,> 100 µM (inactive),> 100 µM (inactive),–,55.1 µM (inactive),> 100 µM (inactive),> 100 µM (inactive),> 100 µM (inactive),> 100 µM (inactive),> 100 µM (inactive),> 100 µM (inactive),72.4 µM (inactive),> 100 µM (inactive),80 µM (inactive),> 100 µM (inactive),> 100 µM (inactive),> 100 µM (inactive),–,> 100,> 100 µM (inactive),> 100 µM (inactive)
Nc1ccccc1-n1c2c(c3ccccc3c1=O)C(=O)c1ccccc1-2,< 0.01 µM (active),14.6 µM (inactive),61.7 µM (inactive),71.6 µM (inactive),3.13 µM (inactive),> 10 µM (inactive),34 µM (inactive),17.2 µM (inactive),57.9 µM (inactive),9.1 µM (inactive),16.7 µM (inactive),> 100 µM (inactive),23.9 µM (inactive),24.5 µM (inactive),> 100 µM (inactive),42 µM (inactive),–,38,54.5 µM (inactive),16.1 µM (inactive)
Cc1cc(C)nc(NS(=O)(=O)c2ccc(NC(=O)NC(F)(F)F)cc2)n1,–,> 100 µM (inactive),> 100 µM (inactive),–,> 100 µM (inactive),> 100 µM (inactive),–,–,> 100 µM (inactive),–,1.95 µM (inactive),> 100 µM (inactive),–,–,> 100 µM (inactive),> 100 µM (inactive),> 100 µM (inactive),> 100,> 100 µM (inactive),> 100 µM (inactive)
Oc1ccc2c(c1)c1c(n2CCN2CCOCC2)-c2ccccc2CC1,30.7 µM (inactive),23.1 µM (inactive),26.3 µM (inactive),17.8 µM (inactive),21.3 µM (inactive),29.4 µM (inactive),–,20.7 µM (inactive),> 10 µM (inactive),36.4 µM (inactive),33.7 µM (inactive),27.9 µM (inactive),29.9 µM (inactive),5.83 µM (inactive),24.4 µM (inactive),41.8 µM (inactive),20.6 µM (inactive),25.6,20.2 µM (inactive),29.2 µM (inactive)
O=c1[nH]nc(-c2ccccc2)c2[nH]c(-c3ccccc3)cc12,–,> 100 µM (inactive),> 100 µM (inactive),> 100 µM (inactive),–,–,> 100 µM (inactive),–,> 100 µM (inactive),> 100 µM (inactive),> 100 µM (inactive),50.8 µM (inactive),–,–,> 100 µM (inactive),> 100 µM (inactive),> 100 µM (inactive),68.5,–,–
Cc1ccc(-c2nc(N/N=C/C=C/c3ccccc3)c3ccccc3n2)cc1,> 100 µM (inactive),72.9 µM (inactive),29.4 µM (inactive),54 µM (inactive),55.5 µM (inactive),20 µM (inactive),25.9 µM (inactive),17.1 µM (inactive),52 µM (inactive),23.2 µM (inactive),38.8 µM (inactive),> 100 µM (inactive),16.6 µM (inactive),28.6 µM (inactive),17.4 µM (inactive),24.8 µM (inactive),> 100 µM (inactive),48.4,–,28.6 µM (inactive)
Cc1nn(C(=O)c2ccc(Cl)cc2)c2c1C(c1ccc([N+](=O)[O-])cc1)SC(=N)N2 (stereo not given),> 10 µM (inactive),> 10 µM (inactive),> 10 µM (inactive),> 10 µM (inactive),> 10 µM (inactive),> 10 µM (inactive),> 10 µM (inactive),> 10 µM (inactive),> 10 µM (inactive),> 10 µM (inactive),> 10 µM (inactive),> 10 µM (inactive),> 10 µM (inactive),> 10 µM (inactive),> 10 µM (inactive),> 10 µM (inactive),> 10 µM (inactive),> 10,–,> 10 µM (inactive)
CN1C(=O)C2CCCC(=O)N2c2cccnc21 (stereo not given),> 100 µM (inactive),> 100 µM (inactive),–,> 100 µM (inactive),> 100 µM (inactive),> 100 µM (inactive),> 100 µM (inactive),68.9 µM (inactive),> 100 µM (inactive),> 100 µM (inactive),> 100 µM (inactive),> 100 µM (inactive),> 100 µM (inactive),> 100 µM (inactive),–,> 100 µM (inactive),> 100 µM (inactive),> 100,–,–
Cc1ccc(C(=O)/C=C(\O)C(=O)NC23CC4CC(CC(C4)C2)C3)cc1,–,–,> 10 µM (inactive),> 10 µM (inactive),–,> 10 µM (inactive),9.95 µM (inactive),9.02 µM (inactive),> 10 µM (inactive),5.86 µM (inactive),> 10 µM (inactive),5.64 µM (inactive),8.71 µM (inactive),–,–,7.59 µM (inactive),–,6.27,–,9.79 µM (inactive)
CC(C)(C)OC(=O)N/C(C=O)=C\C1CCCCC1,21.2 µM (inactive),18.3 µM (inactive),16.2 µM (inactive),24.4 µM (inactive),28.4 µM (inactive),17.7 µM (inactive),29 µM (inactive),15.6 µM (inactive),20 µM (inactive),29.8 µM (inactive),20.4 µM (inactive),22.6 µM (inactive),19.5 µM (inactive),20.2 µM (inactive),19.8 µM (inactive),19.3 µM (inactive),27.3 µM (inactive),18.8,–,17.3 µM (inactive)
N#CCCC(CC#N)N1CCN(CCO)CC1 (stereo not given),> 100 µM (inactive),> 100 µM (inactive),> 100 µM (inactive),> 100 µM (inactive),> 100 µM (inactive),> 100 µM (inactive),> 100 µM (inactive),> 100 µM (inactive),> 100 µM (inactive),> 100 µM (inactive),–,> 100 µM (inactive),> 100 µM (inactive),> 100 µM (inactive),> 100 µM (inactive),> 100 µM (inactive),61.4 µM (inactive),> 100,> 100 µM (inactive),–
O=C(O)CCC(NC(=O)c1ccc(CNc2nc3cc(C(F)(F)F)ccc3nc2C(=O)O)cc1)C(=O)O (stereo not given),> 100 µM (inactive),> 100 µM (inactive),> 100 µM (inactive),> 100 µM (inactive),> 100 µM (inactive),> 100 µM (inactive),> 100 µM (inactive),> 100 µM (inactive),> 100 µM (inactive),> 100 µM (inactive),> 100 µM (inactive),> 100 µM (inactive),–,> 100 µM (inactive),> 100 µM (inactive),–,–,> 100,> 100 µM (inactive),> 100 µM (inactive)
BrC(c1cccc2ccccc12)c1cccc2ccccc12,17.2 µM (inactive),16.5 µM (inactive),17.3 µM (inactive),15.5 µM (inactive),–,29 µM (inactive),13.6 µM (inactive),14.6 µM (inactive),7.23 µM (inactive),25.5 µM (inactive),22.2 µM (inactive),> 100 µM (inactive),13.8 µM (inactive),15.9 µM (inactive),27.1 µM (inactive),14.3 µM (inactive),–,17.7,17.6 µM (inactive),22.1 µM (inactive)
COc1ccc2c(c1)/C(=C\c1cccc(/C=C3/C(=O)Nc4ccc(OC)cc43)n1)C(=O)N2,–,8.85 µM (inactive),1.32 µM (inactive),1.78 µM (inactive),1.42 µM (inactive),1.73 µM (inactive),2.1 µM (inactive),–,1.17 µM (inactive),2.47 µM (inactive),1.99 µM (inactive),0.412 µM (active),–,1.4 µM (inactive),1.01 µM (active),0.757 µM (active),4.35 µM (inactive),1.56,2.94 µM (inactive),1.32 µM (inactive)
